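Growth conditions: 96-well plates. Treatment: test compound, 48 hours, 5 concentrations. Analysis: linear interpolation between bracketing concentrations; unreached endpoints set to highest concentration. The concentration for 50% growth inhibition is given as GI50.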 Active and inactive are the calls of the source. Cut-off read from the data, not from the text of the source: active = GI50 up to about 1.1 µM and inactive = higher.
What was measured:
Test in all cases: DTP human tumour cell line panel, 48 h
[1] = tested on: DLD-1
[2] = tested on: OVCAR-3
[3] = tested on: OVCAR-4
[4] = tested on: SK-MEL-5
[5] = tested on: HCC 2998
[6] = tested on: A498
[7] = tested on: CCRF-CEM
[8] = tested on: SF-268
[9] = tested on: EKVX
[10] = tested on: KM12
[11] = tested on: HOP-92
[12] = tested on: IGROV-1
[13] = tested on: U-251
[14] = tested on: LOX IMVI
[15] = tested on: K562
[16] = tested on: HCT-116
[17] = tested on: NCI-H23

Measured: GI50

CCO/C=C/C(C)C1(C(=O)OCC)CCCCC1=O (stereo not given)
inactive: [1] > 100 µM | [2] > 100 µM | [3] > 100 µM | [4] > 100 µM | [5] > 100 µM | [6] > 100 µM | [7] > 100 µM | [8] > 100 µM | [9] > 100 µM | [10] > 100 µM | [11] > 100 µM | [12] > 100 µM | [13] > 100 µM | [14] 45.9 µM | [15] > 100 µM | [16] > 100 µM | [17] > 100 µM

Oc1ccc2c3c1OC1C(=NN=C4CCC5(O)C6Cc7ccc(O)c8c7C5(CCN6CC5CC5)C4O8)CCC4(O)C(C2)N(CC2CC2)CCC314 (stereo not given)
inactive: [1] 46 µM | [2] 18.5 µM | [3] 25.6 µM | [4] 19 µM | [5] 21.5 µM | [6] > 42.8 µM | [7] 22.9 µM | [8] > 50.4 µM | [9] 32.4 µM | [10] 19.8 µM | [11] 21.1 µM | [12] > 100 µM | [13] 17.7 µM | [14] 20 µM | [15] 17.2 µM | [16] 16.6 µM | [17] > 57.5 µM

O=C1CCCC/C(=C/c2ccccc2)N1
inactive: [1] > 100 µM | [2] > 100 µM | [3] > 100 µM | [5] > 100 µM | [6] > 100 µM | [7] > 100 µM | [8] > 100 µM | [9] > 100 µM | [10] > 100 µM | [11] > 100 µM | [12] > 100 µM | [13] > 100 µM | [14] > 100 µM | [15] > 100 µM | [16] > 100 µM | [17] > 100 µM

COc1ccc(OC)c(NC(=O)CCC/C(CC(=O)c2ccc(O)c(OC)c2)=N\Nc2ccc([N+](=O)[O-])cc2)c1
inactive: [1] > 100 µM | [2] > 100 µM | [3] > 100 µM | [4] > 100 µM | [5] > 100 µM | [6] > 100 µM | [7] 68.2 µM | [8] > 100 µM | [9] 59 µM | [10] 94.6 µM | [11] 34.3 µM | [12] > 100 µM | [13] 32.1 µM | [14] 40.8 µM | [15] 30.1 µM | [16] > 100 µM | [17] 48.1 µM

NC1=NN(c2ccccc2)C(=O)C1C(=O)C(=O)Nc1nccs1 (stereo not given)
inactive: [1] > 100 µM | [2] > 100 µM | [3] > 100 µM | [4] > 100 µM | [5] > 100 µM | [6] > 100 µM | [7] > 100 µM | [8] > 100 µM | [9] > 100 µM | [10] > 100 µM | [11] > 100 µM | [12] > 100 µM | [13] > 100 µM | [14] > 100 µM | [15] > 100 µM | [16] > 100 µM | [17] > 100 µM

O=C(C(=O)N1CC2C=CC1CC2)c1c[nH]c2ccccc12 (stereo not given)
inactive: [1] > 100 µM | [3] > 100 µM | [4] > 100 µM | [5] > 100 µM | [6] > 100 µM | [7] > 100 µM | [8] > 100 µM | [10] > 100 µM | [11] > 100 µM | [12] > 100 µM | [13] > 100 µM | [14] > 100 µM | [15] > 100 µM | [16] > 100 µM

O=C1O/C(=C(\Br)c2cccc3ccccc23)c2ccccc21
inactive: [1] 23.5 µM | [2] 26.8 µM | [3] 16.5 µM | [4] 22.8 µM | [5] > 65.3 µM | [6] 19.1 µM | [7] 20 µM | [8] > 37.5 µM | [9] > 42 µM | [10] 29.7 µM | [11] 29 µM | [12] 27.9 µM | [13] > 100 µM | [14] 73.6 µM | [15] 25.2 µM | [16] 31.4 µM | [17] > 40 µM

N/N=C1\C(=O)N(c2ccc(Cl)cc2Cl)C(=O)C(=O)C1c1nc2ccccc2o1 (stereo not given)
inactive: [1] > 100 µM | [2] > 100 µM | [3] > 100 µM | [4] > 100 µM | [5] > 100 µM | [6] > 100 µM | [7] 57.5 µM | [8] > 100 µM | [9] > 100 µM | [10] > 100 µM | [11] > 100 µM | [12] > 100 µM | [13] > 100 µM | [14] 97.7 µM | [15] > 100 µM | [16] > 100 µM | [17] > 100 µM

Cc1ccc2nc(NC(=O)C(=O)C(C(=O)c3ccc4ccccc4c3)C3OC(=O)c4ccccc43)sc2c1 (stereo not given)
inactive: [1] 13 µM | [2] 22.9 µM | [3] 22.7 µM | [4] 10.5 µM | [5] 11.3 µM | [6] 5.48 µM | [8] 8.3 µM | [9] 17.5 µM | [10] 16.8 µM | [11] 3.53 µM | [12] 14.9 µM | [13] 2.81 µM | [14] 10.2 µM | [16] 5.6 µM | [17] 4.99 µM

COc1ccc(-c2cc(=O)c3ccccc3[nH]2)c(OC)c1
inactive: [1] > 100 µM | [2] > 100 µM | [5] > 10 µM | [7] > 100 µM | [8] > 100 µM | [9] > 100 µM | [10] > 100 µM | [12] > 100 µM | [13] > 100 µM | [14] > 100 µM | [15] > 100 µM | [16] > 100 µM | [17] > 100 µM

CC(=O)O[C@H]1CC[C@@]2(C)C(=CC[C@@H]3C2CC[C@]2(C)Nc4[nH]ncc4CC32)C1 (stereo not given in full)
inactive: [1] 32 µM | [2] 19.2 µM | [3] 18.5 µM | [4] 19.1 µM | [5] > 100 µM | [6] > 100 µM | [7] 18.2 µM | [9] 29.8 µM | [10] 16.6 µM | [12] 75.5 µM | [13] 15 µM | [15] 20.7 µM | [16] 16.4 µM | [17] 27.5 µM

CC(C)(C)C1CC[C@H]2c3c([nH]c4ccc(Br)cc34)[C@H]3C(=O)N(c4ccccc4)C(=O)[C@H]3[C@H]2C1 (stereo not given in full)
inactive: [1] 27.8 µM | [2] 75.2 µM | [3] 11.2 µM | [4] 28.1 µM | [5] > 100 µM | [7] 5.52 µM | [8] 8.73 µM | [9] 92.9 µM | [10] 17.6 µM | [11] 23.1 µM | [12] > 100 µM | [13] 10.4 µM | [14] 19.1 µM | [15] 11.5 µM | [16] 11.3 µM | [17] 27.9 µM

CCC(C)Cn1c(C)nc2c1C(=O)c1ccccc1C2=O (stereo not given)
inactive: [1] 24.6 µM | [2] 23.3 µM | [3] 38 µM | [4] 15 µM | [5] 47.4 µM | [7] 21.4 µM | [8] 23.9 µM | [9] 31.9 µM | [10] 27.9 µM | [11] 20.4 µM | [12] 42.5 µM | [13] 20.5 µM | [14] 19.4 µM | [15] 5.42 µM | [16] > 10 µM | [17] 20.7 µM

CC1(C)C(=O)C(C)(C)C1=S
inactive: [1] > 100 µM | [2] > 100 µM | [3] > 100 µM | [4] > 100 µM | [5] > 100 µM | [6] > 100 µM | [7] > 100 µM | [8] > 100 µM | [9] > 100 µM | [10] > 100 µM | [12] > 100 µM | [13] > 100 µM | [14] > 100 µM | [15] > 100 µM | [16] > 100 µM | [17] > 100 µM

CCOP(=O)(C/C(O)=C1\C(=O)C(CCCNC(=O)OC(C)(C)C)N(Cc2ccc(OC)c(OC)c2)C1=O)OCC (stereo not given)
inactive: [1] > 100 µM | [2] > 100 µM | [3] > 100 µM | [4] > 100 µM | [5] > 100 µM | [6] > 100 µM | [7] > 100 µM | [8] > 100 µM | [9] > 100 µM | [10] > 100 µM | [12] > 100 µM | [13] > 100 µM | [14] > 100 µM | [15] > 100 µM | [16] > 100 µM | [17] > 100 µM

COC(C)(C)[C@H](O)C(O)CC(C)[C@@H]1CCC23CC12CCC1[C@@]2(C)CCC(OC(C)=O)C(C)(C)C2CC(OC2OC(COC(C)=O)C(O)C(O)C2O)[C@]13C (stereo not given in full)
inactive: [1] 1.83 µM | [2] 3.29 µM | [3] 4.55 µM | [4] 5.48 µM | [5] 1.57 µM | [6] 8.83 µM | [7] 2.55 µM | [8] 3.48 µM | [9] 7.46 µM | [10] 2.16 µM | [11] 3.72 µM | [12] 2.56 µM | [13] 2.67 µM | [14] 2.79 µM | [15] 2.34 µM | [16] 2.26 µM | [17] 7.18 µM
